Laboratory results published in patent publication US12528837B2, “Aryl substituted polymyxin derivatives” (priority 2018, dated 2026).

Columns and labels:
K. pneumoniae ATCC 43816 = assay: Neutropenic murine thigh model; assay type: in vivo; settings: CD-1 mice thigh, counts at 16 h, PMB in parentheses
Method: After rendering neutropenic (cyclophosphamide 150 mg/kg d-4, 100 mg/kg d-1), CD-1 mice (n=5) were inoculated in each thigh with approx. 10^5 cfu of K. pneumoniae ATCC43816. Mice were dosed IV with appropriate doses of PMB sulphate or test compound (equivalent weight free base) at 2, 6 and 10 h post-infection. At 16 h post-infection mice were euthanised and thighs prepared for colony counts.
(§1) In each case the decrease observed with PMB in the same experiment is shown in parentheses: […]

A. baumannii NCTC13301 = assay: Neutropenic murine lung model; assay type: in vivo
Method: After rendering neutropenic (cyclophosphamide 200 mg/kg d-4, 150 mg/kg d-1), CD-1 mice (n=8) were inoculated intranasally with approx. 10^7 cfu per lung of A. baumannii NCTC13301. Mice were dosed SC with PMB sulphate (20 mg/kg) or appropriate doses of test compound (equivalent weight free base) at 2, 6 and 10 h post-infection. At 16 h post-infection mice were euthanised and lungs prepared for colony counts.
as §1

Polymyxin B [reference compound]
Log drop in cfu Compared to Vehicle Control (K. pneumoniae ATCC 43816; IV 0.25 mg/kg at 2, 6, 10 h): 0.2 (0.2)
Log drop in cfu Compared to Vehicle Control (K. pneumoniae ATCC 43816; IV 1 mg/kg at 2, 6, 10 h): 5.2
Log drop in cfu Compared to Vehicle Control (K. pneumoniae ATCC 43816; IV 2 mg/kg at 2, 6, 10 h): 4.0
Log drop in cfu Compared to Vehicle Control (K. pneumoniae ATCC 43816; IV 4 mg/kg at 2, 6, 10 h): 5.6
Log drop in cfu Compared to Vehicle Control (K. pneumoniae ATCC 43816; IV […] at 2, 6, 10 h): 0.2
Log drop in cfu Compared to Vehicle Control (A. baumannii NCTC13301; CD-1 mice lung, SC 20 mg/kg at 2, 6, 10 h, counts at 16 h, PMB (20 mg/kg) in parentheses): 0
Efficacy in the model (in words) (A. baumannii NCTC13301; neutropenic murine lung model, A. baumannii NCTC13301, 20 mg/kg SC (PMB: maximum tolerated dose)): not efficacious
